Here are results for 11 compounds from ChEMBL document CHEMBL1150492, “Topliss approach to the synthesis of biologically active substituted N-benzoyl taxol analogues” (1994).

The nature of assay [1]: In vitro effect on microtubule assembly relative to that of Taxol, expressed as ED50/ED50 (Taxol=1). The assay is classed as functional.
A further assay concerns B16. Nature of the assay: In vitro effect on B16 melanoma cytotoxicity relative to that of Taxol, expressed as ED50/ED50 (Taxol=1). The format is functional, Mus musculus.

Regarding `CC(=O)O[C@H]1C(=O)[C@@]2(C)[C@H]([C@H](OC(=O)c3ccccc3)[C@]3(O)C[C@H](OC(=O)[C@H](O)[C@@H](NC(=O)c4cccc(N(C)C)c4)c4ccccc4)C(C)=C1C3(C)C)[C@]1(OC(C)=O)CO[C@@H]1C[C@@H]2O`, the ED50 ratio in assay [1] is 1.4; in the assay with B16 it was 1.6. Regarding `CC(=O)O[C@H]1C(=O)[C@@]2(C)[C@H]([C@H](OC(=O)c3ccccc3)[C@]3(O)C[C@H](OC(=O)[C@H](O)[C@@H](NC(=O)c4ccccc4C)c4ccccc4)C(C)=C1C3(C)C)[C@]1(OC(C)=O)CO[C@@H]1C[C@@H]2O`, the ED50 ratio amounted to 1.9 in assay [1] and 7.5 with B16.

For `CC(=O)O[C@H]1C(=O)[C@@]2(C)[C@H]([C@H](OC(=O)c3ccccc3)[C@]3(O)C[C@H](OC(=O)[C@H](O)[C@@H](NC(=O)c4ccc(Cl)cc4)c4ccccc4)C(C)=C1C3(C)C)[C@]1(OC(C)=O)CO[C@@H]1C[C@@H]2O`, the results for the ED50 ratio (in assay [1]; with B16) were 2.4 and 1.5, respectively. For `CC(=O)O[C@H]1C(=O)[C@@]2(C)[C@H]([C@H](OC(=O)c3ccccc3)[C@]3(O)C[C@H](OC(=O)[C@H](O)[C@@H](NC(=O)c4ccc(C)cc4)c4ccccc4)C(C)=C1C3(C)C)[C@]1(OC(C)=O)CO[C@@H]1C[C@@H]2O` the same measures were 1.6 and 1.4.

For `CC(=O)O[C@H]1C(=O)[C@@]2(C)[C@H]([C@H](OC(=O)c3ccccc3)[C@]3(O)C[C@H](OC(=O)[C@H](O)[C@@H](NC(=O)c4ccc(F)cc4)c4ccccc4)C(C)=C1C3(C)C)[C@]1(OC(C)=O)CO[C@@H]1C[C@@H]2O`, the ED50 ratio worked out at 1.2 in assay [1] and 4.3 with B16. The like results for `CC(=O)O[C@H]1C(=O)[C@@]2(C)[C@H]([C@H](OC(=O)c3ccccc3)[C@]3(O)C[C@H](OC(=O)[C@H](O)[C@@H](NC(=O)c4ccc([N+](=O)[O-])cc4)c4ccccc4)C(C)=C1C3(C)C)[C@]1(OC(C)=O)CO[C@@H]1C[C@@H]2O` were, in that order, 2 and 20.7. For `CC(=O)O[C@H]1C(=O)[C@@]2(C)[C@H]([C@H](OC(=O)c3ccccc3)[C@]3(O)C[C@H](OC(=O)[C@H](O)[C@@H](NC(=O)c4ccc(Cl)c(Cl)c4)c4ccccc4)C(C)=C1C3(C)C)[C@]1(OC(C)=O)CO[C@@H]1C[C@@H]2O` the same measures were 2.1 and 10.6. For `CC(=O)O[C@H]1C(=O)[C@@]2(C)[C@H]([C@H](OC(=O)c3ccccc3)[C@]3(O)C[C@H](OC(=O)[C@H](O)[C@@H](NC(=O)c4ccccc4)c4ccccc4)C(C)=C1C3(C)C)[C@]1(OC(C)=O)CO[C@@H]1C[C@@H]2O` [PACLITAXEL] the same measures were 1 and 1. Turning to `CC(=O)O[C@H]1C(=O)[C@@]2(C)[C@H]([C@H](OC(=O)c3ccccc3)[C@]3(O)C[C@H](OC(=O)[C@H](O)[C@@H](NC(=O)c4cccc(Cl)c4)c4ccccc4)C(C)=C1C3(C)C)[C@]1(OC(C)=O)CO[C@@H]1C[C@@H]2O`, the ED50 ratio in assay [1] amounted to 2; in the assay on B16, 1.8. Consider `CC(=O)O[C@H]1C(=O)[C@@]2(C)[C@H]([C@H](OC(=O)c3ccccc3)[C@]3(O)C[C@H](OC(=O)[C@H](O)[C@@H](N)c4ccccc4)C(C)=C1C3(C)C)[C@]1(OC(C)=O)CO[C@@H]1C[C@@H]2O`, for which the ED50 ratio in assay [1] was 21. For `COc1ccc(C(=O)N[C@@H](c2ccccc2)[C@@H](O)C(=O)O[C@H]2C[C@@]3(O)[C@@H](OC(=O)c4ccccc4)[C@@H]4[C@]5(OC(C)=O)CO[C@@H]5C[C@H](O)[C@@]4(C)C(=O)[C@H](OC(C)=O)C(=C2C)C3(C)C)cc1`, the ED50 ratio in assay [1] is 0.6; with B16 it was 1.3.
